Laboratory results taken from patent US9445594B2, “Molecules having certain pesticidal utilities, intermediates, compositions, and processes, related thereto” (priority 2014, dated 2016).

Columns and labels:
Format in all cases: in vivo
[1] = tested on: Cabbage Looper (Trichoplusia ni, TRIPNI) ("CL"); experiment: Bioassays on CL, 128-well diet tray assay; settings: 168 h, second instar larvae, 50 μg/cm^2 on artificial diet, 25° C., five to seven days, average of eight wells, read-out: CL % Control (or Mortality) rating
Method: (§1) Certain molecules disclosed in this document were tested against BAW, CEW, and CL using procedures described in the following examples. In the reporting of the results, the “BAW, CEW, & CL Rating Table” was used (See Table Section).
Bioassays on CL were conducted using a 128-well diet tray assay. one to five second instar CL larvae were placed in each well (3 mL) of the diet tray that had been previously filled with 1 mL of artificial diet to which 50 μg/cm^2 of the test compound (dissolved in 50 μL of 90:10 acetone-water mixture) had been applied (to each of eight wells) and then allowed to dry. Trays were covered with a clear self-adhesive cover and held at 25° C., 14:10 light-dark for five to seven days. Percent mortality was recorded for the larvae in each well; activity in the eight wells was then averaged. The results are indicated in the table entitled “Table ABC: Biological Results” (See Table Section).

[2] = tested on: Yellow Fever Mosquito (Aedes aegypti, AEDSAE) ("YFM"); experiment: Bioassays on YFM, 96-well plate larval assay; settings: about 1 day-old larvae, from 4000 ppm DMSO master plate diluted, room temperature, scored after 3 days
Method: Certain molecules disclosed in this document were tested against YFM using procedures described in the following paragraph. In the reporting of the results, the “YFM Rating Table” was used (See Table Section).
Master plates containing 400 μg of a molecule dissolved in 100 μL of dimethyl sulfoxide (DMSO) (equivalent to a 4000 ppm solution) are used. A master plate of assembled molecules contains 15 μL per well. To this plate, 135 μL of a 90:10 water:acetone mixture is added to each well. A robot (Biomek® NXP Laboratory Automation Workstation) is programmed to dispense 15 μL aspirations from the master plate into an empty 96-well shallow plate (“daughter” plate). There are 6 reps (“daughter” plates) created per master. The created daughter plates are then immediately infested with YFM larvae.
The day before plates are to be treated, mosquito eggs are placed in Millipore water containing liver powder to begin hatching (4 g. into 400 mL). After the daughter plates are created using the robot, they are infested with 220 μL of the liver powder/larval mosquito mixture (about 1 day-old larvae). After plates are infested with mosquito larvae, a non-evaporative lid is used to cover the plate to reduce drying. Plates are held at room temperature for 3 days prior to grading. After 3 days, each well is observed and scored based on mortality.

[3] = tested on: Beet Armyworm (Spodoptera exigua, LAPHEG) ("BAW"); experiment: Bioassays on BAW, 128-well diet tray assay; settings: 168 h, second instar larvae, 50 μg/cm^2 on artificial diet, 25° C., five to seven days, average of eight wells, read-out: BAW % Control (or Mortality) rating
Method: as §1
Bioassays on BAW were conducted using a 128-well diet tray assay. one to five second instar BAW larvae were placed in each well (3 mL) of the diet tray that had been previously filled with 1 mL of artificial diet to which 50 μg/cm^2 of the test compound (dissolved in 50 μL of 90:10 acetone-water mixture) had been applied (to each of eight wells) and then allowed to dry. Trays were covered with a clear self-adhesive cover and held at 25° C., 14:10 light-dark for five to seven days. Percent mortality was recorded for the larvae in each well; activity in the eight wells was then averaged. The results are indicated in the table entitled “Table ABC: Biological Results” (See Table Section).

SMILES | mortality at 50 µg/cm2 [1] [%] | YFM % Control (or Mortality) rating [2] | mortality at 50 µg/cm2 [3] [%]
Cc1cccc(NC(=O)NCCCc2ccc(-c3ncn(-c4ccc(OC(F)(F)F)cc4)n3)cc2)c1 [F87, 1-(m-Tolyl)-3-(3-(4-(1-(4-(trifluoromethoxy)phenyl)-1H-1,2,4-triazol-3-yl)phenyl)propyl)urea] | 0 | D (No activity noticed in this bioassay) | 
CCc1ccccc1NC(=O)NCc1ccc(-c2ncn(-c3ccc(OC(F)(F)F)cc3)n2)cc1 [F101, 1-(2-Ethylphenyl)-3-(4-(1-(4-(trifluoromethoxy)phenyl)-1H-1,2,4-triazol-3-yl)benzyl)urea] |  | D (No activity noticed in this bioassay) | 0
Cc1ccccc1NC(=O)NCCCCc1ccc(-c2ncn(-c3ccc(OC(F)(F)F)cc3)n2)cc1 [F89, 1-(o-Tolyl)-3-(4-(4-(1-(4-(trifluoromethoxy)phenyl)-1H-1,2,4-triazol-3-yl)phenyl)butyl)urea] |  | D (No activity noticed in this bioassay) | 0
COc1cccc(NC(=O)NCCCCc2ccc(-c3ncn(-c4ccc(OC(F)(F)F)cc4)n3)cc2)c1 [F96, 1-(3-Methoxyphenyl)-3-(4-(4-(1-(4-(trifluoromethoxy)phenyl)-1H-1,2,4-triazol-3-yl)phenyl)butyl)urea] |  | D (No activity noticed in this bioassay) | 0
O=C(NCCCCc1ccc(-c2ncn(-c3ccc(OC(F)(F)F)cc3)n2)cc1)Nc1ccccc1Cl [F92, 1-(2-Chlorophenyl)-3-(4-(4-(1-(4-(trifluoromethoxy)phenyl)-1H-1,2,4-triazol-3-yl)phenyl)butyl)urea] | 0 | D (No activity noticed in this bioassay) | 
Cc1cccc(NC(=O)NCCCCc2ccc(-c3ncn(-c4ccc(OC(F)(F)F)cc4)n3)cc2)c1 [F91, 1-(m-Tolyl)-3-(4-(4-(1-(4-(trifluoromethoxy)phenyl)-1H-1,2,4-triazol-3-yl)phenyl)butyl)urea] | 0 | D (No activity noticed in this bioassay) | 
O=C(Nc1ccc(-c2ncn(-c3ccc(OC(F)(F)F)cc3)n2)cc1)Nc1ncccc1-c1ccccc1 [F32, 1-(3-Phenylpyridin-2-yl)-3-(4-(1-(4-(trifluoromethoxy)phenyl)-1H-1,2,4-triazol-3-yl)phenyl)urea] |  | B (More than 0 - Less than 80) | 
O=C(NCc1ccc(-c2ncn(-c3ccc(OC(F)(F)F)cc3)n2)cc1)Nc1ccccc1-c1ccccc1 [F70, 1-([1,1′-biphenyl]-2-yl)-3-(4-(1-(4-(trifluoromethoxy)phenyl)-1H-1,2,4-triazol-3-yl)benzyl)urea] | 50 to 100 |  | 50 to 100
CCc1ccccc1N(C(=O)Nc1ccc(-c2ncn(-c3ccc(OC(F)(F)F)cc3)n2)cc1)C(N)=S [F52, N-(2-Ethylphenyl)-N-(4-{1-[4-(trifluoromethoxy)phenyl]-1H-1,2,4-triazol-3-yl}phenyl)dicarbonimidothioic diamide] | 50 to 100 |  | 50 to 100
Cc1ccccc1-c1cccnc1NC(=O)Nc1ccc(-c2ncn(-c3ccc(OC(F)(F)F)cc3)n2)cc1 [F24, 1-(3-(o-Tolyl)pyridin-2-yl)-3-(4-(1-(4-(trifluoromethoxy)phenyl)-1H-1,2,4-triazol-3-yl)phenyl)urea] | 50 to 100 |  | 50 to 100
O=C(Nc1ccc(-c2ncn(-c3ccc(OC(F)(F)F)cc3)n2)cc1)Nc1ccccc1-n1cccc1 [F13, 1-(2-(1H-pyrrol-1-yl)phenyl)-3-(4-(1-(4-(trifluoromethoxy)phenyl)-1H-1,2,4-triazol-3-yl)phenyl)urea] | 50 to 100 |  | 50 to 100
Cc1ccccc1N(C(=O)Nc1ccc(-c2ncn(-c3ccc(OC(F)(F)F)cc3)n2)cc1)C(N)=S [F19, N-(2-methylphenyl)-N-(4-{1-[4-(trifluoromethoxy)phenyl]-1H-1,2,4-triazol-3-yl}phenyl)dicarbonimidothioic diamide] | 50 to 100 |  | 50 to 100
